The subject of one assay is T1, PD-1/PD-L1.
T1 construct: PD-L1 on aAPC/CHO-K1 cells, PD-1 on Jurkat effector cells (Promega)
The assay can be described thus: cells. Conditions: Homo sapiens, Jurkat; NFAT reporter bioassay. The arrangement: species or system Jurkat PD-1 effector cells with PD-L1 aAPC/CHO-K1; PD-1/PD-L1 blockade bioassay, NFAT luciferase reporter, Bio-Glo luminescence. On the procedure:
BioAssay is designed to measure luciferase activity showing the EC50 level of PD-1/PD-L1 blocking by small molecules targeting PD-L1 protein in the cell. PD-1 effector cells were incubated with PD-L1 aAPC/CHO-K1 cells in the absence or presence of small molecules or αPD-L1 blocking antibodies, as indicated titration according to the manufacturer’s instruction (Promega). Bio-Glo™ Reagent was added and luminescence quantified. Data were analyzed using GraphPad Prism. Small molecules were first screened in a cell-free in vitro homogeneous time-resolved fluorescence (HTRF) assay, utilizing αPD-L1 (MIH1) and αPD-1 (nivolumab) antibodies as positive controls. […] It has been reported that a small molecule can stabilize a dimer form of PD-L1 through interactions with antiparallel residues in the hydrophobic dimer interface. To test if compound A can induce intermolecular PD-L1 interactions in solution, we developed a homodimer HTRF assay. […] In this assay, preventing the PD-1/PD-L1 interaction results in a release of constitutive NFAT reporter suppression and increases luciferase activity (relative luminescence units). […] We determined if compound A cellular bioassay potency could translate into immunomodulatory effects on primary human immune cells. […]

For another assay, the target named is T2, cell surface PD-L1 (Homo sapiens, UniProt Q9NZQ7).
T2 construct: gene CD274
T2 sequence (Q9NZQ7 whole entry): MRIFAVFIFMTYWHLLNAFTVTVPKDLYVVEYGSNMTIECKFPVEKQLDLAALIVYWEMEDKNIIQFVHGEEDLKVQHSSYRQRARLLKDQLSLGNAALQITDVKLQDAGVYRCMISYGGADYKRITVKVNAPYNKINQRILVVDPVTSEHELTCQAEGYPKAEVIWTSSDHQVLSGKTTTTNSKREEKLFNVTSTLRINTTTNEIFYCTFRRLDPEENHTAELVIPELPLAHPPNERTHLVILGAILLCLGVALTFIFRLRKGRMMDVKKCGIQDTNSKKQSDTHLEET
Nature of the assay: cell-based.

For assay [1], the target named is T3, programmed death-ligand 1 (PD-L1, hPD-L1) (Homo sapiens, UniProt Q9NZQ7).
T3 construct: gene CD274; human PD-L1(18–134) with 6xHis carboxyl-terminal tag (crystal structure); recombinant Human PD-L1-His (HTRF)
T3 sequence (Q9NZQ7 18-134): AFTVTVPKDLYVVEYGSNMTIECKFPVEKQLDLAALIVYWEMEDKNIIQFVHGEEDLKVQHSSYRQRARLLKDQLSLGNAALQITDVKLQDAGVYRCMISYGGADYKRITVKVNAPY
The assay can be described thus: co-crystal structure at […] Å (PD-L1 homodimer); IC50 from PD-1/PD-L1 HTRF assay; PD-L1/PD-L1 dimerization HTRF. Format: binding. In general terms: TR-FRET usually uses a lanthanide donor and a delayed reading to cut background.

In the assay with PD-1/PD-L1, `Cc1c(NC(=O)c2ccc(CNCCO)cn2)cccc1-c1cccc(NC(=O)c2ccc(CNCCO)cn2)c1C` [ARB-272572] yielded a concentration giving a half-maximal response (EC50) of 17.9 nM. In addition, the IC50 on cell surface PD-L1 worked out at 2.1 nM.

The compound `Cc1c(NC(=O)c2ccc(CNCCO)cn2)cccc1-c1cccc(NC(=O)c2ccc(CNCCO)cn2)c1C` [compound A, ARB-272572] registered an IC50 in assay [1] of 0.4 nM.

Broadly, the EC50 is the concentration giving half of the maximal effect. A low value points to an effect from little substance. One may read the IC50 as the concentration that gives 50% inhibition. Low readings indicate higher potency, high ones lower potency.

The values above are taken from publication PMC7900207, “Checkpoint inhibition through small molecule-induced internalization of programmed death-ligand 1” (Nature Communications, 2021).
